Experimental data: the supplement of paper PMC10307832

Legend:
Assay in all cases: relative viability (nuclei count vs DMSO), 5 days (fraction); higher = more cells survive
[1] = compound: CCN(CCO)CCCC(C)Nc1ccnc2cc(Cl)ccc12 [Hydroxychloroquine] + COc1cc2c(Oc3ccc(NC(=O)C4(C(=O)Nc5ccc(F)cc5)CC4)cc3F)ccnc2cc1OCCCN1CCOCC1 [Foretinib] (partner 0.25 µM)
Summary of the method: (§1)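 Five library-drug doses in √10 steps were combined with a fixed anchor-drug dose, or a single drug was given alone, by pin tool to lung cancer cell lines in 1536-well plates the day after seeding. Nuclei were stained and counted after 5 days. Relative viability is the nuclei count in treated wells over that in vehicle wells, taken as the median of duplicate plates.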

[2] = compound: CCN(CCO)CCCC(C)Nc1ccnc2cc(Cl)ccc12 [Hydroxychloroquine] + CCNC(=O)c1noc(-c2cc(C(C)C)c(O)cc2O)c1-c1ccc(CN2CCOCC2)cc1 [Luminespib] (partner 0.01 µM)
Summary of the method: as §1

[3] = compound: CCN(CCO)CCCC(C)Nc1ccnc2cc(Cl)ccc12 [Hydroxychloroquine] + Cc1cc(Nc2cc(N3CCN(C)CC3)nc(Sc3ccc(NC(=O)C4CC4)cc3)n2)n[nH]1 [Tozasertib] (partner 0.1 µM)
Summary of the method: as §1

[4] = compound: CCN(CCO)CCCC(C)Nc1ccnc2cc(Cl)ccc12 [Hydroxychloroquine] + NC(=O)Nc1cc(-c2cccc(F)c2)sc1C(=O)N[C@H]1CCCNC1 [AZD7762] (partner 0.2 µM)
Summary of the method: as §1

Cell Line | relative viability ([1]; first compound 0.5 µM) | relative viability ([1]; first compound 1.581 µM) | relative viability ([1]; first compound 5 µM) | relative viability ([1]; first compound 15.81 µM) | relative viability ([1]; first compound 50 µM) | relative viability ([2]; first compound 0.5 µM) | relative viability ([2]; first compound 1.581 µM) | relative viability ([2]; first compound 5 µM) | relative viability ([2]; first compound 15.81 µM) | relative viability ([2]; first compound 50 µM) | relative viability ([3]; first compound 0.5 µM) | relative viability ([3]; first compound 1.581 µM) | relative viability ([3]; first compound 5 µM) | relative viability ([3]; first compound 15.81 µM) | relative viability ([3]; first compound 50 µM) | relative viability ([4]; first compound 0.5 µM) | relative viability ([4]; first compound 1.581 µM) | relative viability ([4]; first compound 5 µM) | relative viability ([4]; first compound 15.81 µM) | relative viability ([4]; first compound 50 µM)
A549 | 0.953 | 0.905 | 0.951 | 0.952 | 1.11 |  |  |  |  |  |  |  |  |  |  |  |  |  |  | 
COR-L23 | 1.04 | 0.993 | 1.02 | 0.994 | 1.18 | 0.683 | 0.662 | 0.818 | 0.948 | 0.705 | 0.191 | 0.218 | 0.267 | 0.209 | 0.225 |  |  |  |  | 
COR-L 105 | 0.896 | 1.11 | 0.951 | 1.23 | 0.997 | 0.883 | 0.718 | 0.579 | 0.709 | 0.882 | 0.353 | 0.349 | 0.376 | 0.376 | 0.333 |  |  |  |  | 
Calu-6 | 0.922 | 0.855 | 0.888 | 0.872 | 0.879 |  |  |  |  |  |  |  |  |  |  |  |  |  |  | 
EBC-1 | 0.122 | 0.093 | 0.0998 | 0.11 | 0.132 |  |  |  |  |  |  |  |  |  |  |  |  |  |  | 
HCC-44 |  |  |  |  |  | 1.12 | 0.93 | 1.19 | 1.19 | 1.23 | 1.18 | 0.937 | 0.895 | 0.934 | 1.3 | 1.07 | 1.04 | 1.08 | 1.06 | 0.975
HCC-78 | 0.602 | 0.498 | 0.482 | 0.488 | 0.553 |  |  |  |  |  | 0.438 | 0.459 | 0.478 | 0.305 | 0.466 | 0.595 | 0.754 | 0.605 | 0.661 | 0.641
HCC-366 | 0.938 | 0.891 | 0.902 | 0.945 | 0.923 |  |  |  |  |  | 0.109 | 0.132 | 0.138 | 0.0907 | 0.144 | 0.228 | 0.381 | 0.289 | 0.235 | 0.384
IA-LM | 1.15 | 1.31 | 1.12 | 1.26 | 1.27 |  |  |  |  |  |  |  |  |  |  |  |  |  |  | 
NCI-H520 | 0.833 | 0.781 | 0.801 | 0.839 | 0.748 | 0.236 | 0.226 | 0.217 | 0.184 | 0.209 | 0.45 | 0.39 | 0.442 | 0.465 | 0.41 |  |  |  |  | 
NCI-H661 | 0.998 | 0.992 | 1.01 | 1 | 1.05 | 1.02 | 0.926 | 0.85 | 0.915 | 0.922 | 0.358 | 0.32 | 0.355 | 0.397 | 0.349 |  |  |  |  | 
NCI-H1299 | 1.09 | 1.05 | 1.14 | 1.12 | 1.06 |  |  |  |  |  |  |  |  |  |  |  |  |  |  | 
NCI-H1563 | 0.886 | 0.804 | 0.88 | 0.825 | 0.965 | 0.521 | 0.579 | 0.488 | 0.567 | 0.496 |  |  |  |  |  |  |  |  |  | 
NCI-H1648 |  |  |  |  |  |  |  |  |  |  |  | 0.498 | 0.684 | 0.486 | 0.412 | 0.657 | 0.758 | 0.575 | 0.531 | 0.562
NCI-H1650 | 0.996 | 1.01 | 1.02 | 0.999 | 1.15 | 0.178 | 0.173 | 0.203 | 0.227 | 0.193 | 0.466 | 0.318 | 0.483 | 0.419 | 0.346 |  |  |  |  | 
NCI-H1703 | 0.402 | 0.443 | 0.313 | 0.347 | 0.379 |  |  |  |  |  |  |  |  |  |  | 0.196 | 0.159 | 0.135 | 0.114 | 0.137
NCI-H1792 |  |  |  |  |  | 0.434 | 0.503 | 0.472 | 0.698 | 0.442 |  |  |  |  |  | 0.762 | 0.692 | 0.57 | 0.601 | 0.836
NCI-H2009 | 1.19 | 1.21 | 1.24 | 1.16 | 1.18 | 0.94 | 0.964 | 1.09 | 1.1 | 0.999 | 0.819 | 0.745 | 0.784 | 0.739 | 0.726 |  |  |  |  | 
NCI-H2023 | 0.806 | 0.739 | 0.749 | 0.779 | 0.776 | 0.75 | 0.657 | 0.784 | 0.899 | 0.642 | 0.35 | 0.339 | 0.344 | 0.36 | 0.36 |  |  |  |  | 
NCI-H2228 | 0.809 | 0.862 | 0.839 | 0.969 | 0.834 | 0.24 | 0.122 | 0.162 | 0.185 | 0.112 | 0.281 | 0.201 | 0.285 | 0.259 | 0.321 |  |  |  |  | 
SK-LU-1 | 0.849 | 0.769 | 0.834 | 0.787 | 0.926 | 0.21 | 0.209 | 0.21 | 0.205 | 0.187 | 0.367 | 0.339 | 0.325 | 0.342 | 0.323 |  |  |  |  | 
SK-MES-1 | 0.883 | 0.822 | 1.04 | 0.901 | 0.792 | 0.725 | 0.818 | 0.778 | 0.84 | 0.661 | 1.06 | 0.943 | 1.02 | 1.02 | 0.94 |  |  |  |  | 
SW 1573 | 1.06 | 0.774 | 1.08 | 0.686 | 0.871 | 0.399 | 0.153 | 0.203 | 0.174 | 0.193 | 0.217 | 0.203 | 0.167 | 0.188 | 0.147 |  |  |  |  | 
UMC-11 |  | 0.978 | 1.12 | 1.04 | 1.19 |  | 1.01 | 1.05 | 1.1 | 1.04 | 0.191 | 0.188 | 0.217 | 0.393 | 0.196 |  |  |  |  | 
